Measurements taken from US4902617A, “Enzyme and process for producing the same” (Hoffmann-La Roche Inc., priority 1986, dated 1990).

Tests used:
[1] = biological target: T1, L-sorbosone dehydrogenase, purified from cytosol fraction of Gluconobacter oxydans UV-10 (FERM BP-1267) (Gluconobacter oxydans, UniProt Q47943); assay: biochemical; details: pH 7, read-out: Relative Activity (%) in presence of substance
T1 sequence (Q47943 1-498): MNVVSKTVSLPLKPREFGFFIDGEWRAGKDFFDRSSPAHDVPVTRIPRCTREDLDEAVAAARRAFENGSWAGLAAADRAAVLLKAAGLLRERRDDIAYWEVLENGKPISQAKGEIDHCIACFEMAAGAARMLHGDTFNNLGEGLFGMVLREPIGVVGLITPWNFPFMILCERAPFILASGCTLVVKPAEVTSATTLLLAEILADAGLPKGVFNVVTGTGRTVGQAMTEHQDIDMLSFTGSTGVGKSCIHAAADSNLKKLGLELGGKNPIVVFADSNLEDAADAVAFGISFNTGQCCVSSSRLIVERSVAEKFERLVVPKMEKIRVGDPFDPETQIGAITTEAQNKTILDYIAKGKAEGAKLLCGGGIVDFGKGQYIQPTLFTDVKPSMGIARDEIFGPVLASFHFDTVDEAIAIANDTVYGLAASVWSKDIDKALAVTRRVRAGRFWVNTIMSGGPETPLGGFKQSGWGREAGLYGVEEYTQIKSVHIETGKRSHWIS

[2] = biological target: T1, L-sorbosone dehydrogenase, purified from cytosol fraction of Gluconobacter oxydans UV-10 (FERM BP-1267)

`O[C@H](CS)[C@H](O)CS` (racemic) [Dithiothreitol] was tested. Which activity at 5000 µM [1] did it give?
The activity at 5000 µM was 119%.

`O=C(O)CI` [ICH2 COONa] was tested. Which activity at 5000 µM [1] did it give?
The activity at 5000 µM was 57.7%.

For `CCN1C(=O)C=CC1=O` [N--Ethylmaleimide, N-Ethylmaleimide], which “Effect on enzyme activity (in words)” value ([2]; summary of Table 8) is on record?
The value was “inhibited the enzyme activity strongly”.

What about the activity at 1000 µM [1] of the same compound?
Its activity at 1000 µM is 0%.

How did the “Relative Activity (%) in presence of substance” value ([2]; substance conc. 5 mM, None = 100, pH 7.0, 30° C.) turn out when `[N-]=[N+]=[N-].[Na+]` [NaN3] was run?
The value was 100%.
